Source: patent publication US10961309B2, “Reducing systemic regulatory T cell levels or activity for treatment of disease and injury of the CNS” (Yeda Research and Development Co. Ltd, priority 2014, dated 2021)
“Also recorded” adds a separate entry of the source.

What was measured:
Format in all cases: in vivo, mouse
Aβ plaques = experiment: Aβ plaque quantitation (immunohistochemistry)
Procedure: Tissue processing and immunohistochemistry were performed on paraffin embedded sectioned mouse (6 μm thick) and human (10 μm thick) brains. For human ICAM-1 staining, primary mouse anti-ICAM (1:20 Abcam; ab2213) antibody was used. Slides were incubated for 10 min with 3% H2O2, and a secondary biotin-conjugated anti-mouse antibody was used, followed by biotin/avidin amplification with Vectastain ABC kit (Vector Laboratories). Subsequently, 3,3′-diaminobenzidine (DAB substrate) (Zytomed kit) was applied; slides were dehydrated and mounted with xylene-based mounting solution. For tissue stainings, mice were transcardially perfused with PBS prior to tissue excision and fixation. CP tissues were isolated under a dissecting microscope (Stemi DV4; Zeiss) from the lateral, third, and fourth ventricles of the brain. For whole mount CP staining, tissues were fixated with 2.5% paraformaldehyde (PFA) for 1 hour at 4° C., and subsequently transferred to PBS containing 0.05% sodium azide. Prior to staining, the dissected tissues were washed with PBS and blocked (20% horse serum, 0.3% Triton X-100, and PBS) for 1 h at room temperature. Whole mount staining with primary antibodies (in PBS containing 2% horse serum and 0.3% Triton X-100), or secondary antibodies, was performed for 1 h at room temperature. Each step was followed by three washes in PBS. The tissues were applied to slides, mounted with Immu-mount (9990402, from Thermo Scientific), and sealed with cover-slips. For staining of sectioned brains, two different tissue preparation protocols (paraffin embedded or microtomed free-floating sections) were applied, as previously described (Baruch et al, 2013; Kunis et al, 2013). The following primary antibodies were used: mouse anti-Aβ (1:300, Covance, #SIG-39320); rabbit anti-GFP (1:100, MBL, #598); rat anti-CD68 (1:300, eBioscience, #14-0681); rat anti-ICAM-1 (1:200, Abcam, #AB2213); goat anti-GFP (1:100, Abcam, #ab6658); rabbit anti-IBA-1 (1:300, Wako, #019-19741); goat anti-IL-10 (1:20, R&D systems, #AF519); rat anti-Foxp3 (1:20, eBioscience, #13-5773-80); rabbit anti-CD3 (1:500, Dako, #IS503); mouse anti-ZO-1, mouse anti-E-Cahedrin, and rabbit anti-Claudin-1 (all 1:100, Invitrogen, #33-9100, #33-4000, #51-9000); rabbit anti-GFAP (1:200, Dako, #Z0334). Secondary antibodies included: Cy2/Cy3/Cy5-conjugated donkey anti-mouse/goat/rabbit/rat antibodies (1:200; all from Jackson Immunoresearch). The slides were exposed to Hoechst nuclear staining (1:4000; Invitrogen Probes) for 1 min. Two negative controls were routinely used in immunostaining procedures, staining with isotype control antibody followed by secondary antibody, or staining with secondary antibody alone. For Foxp3 intracellular staining, antigen retrieval from paraffin-embedded slides was performed using Retreivagen Kit (#550524, #550527; BD Pharmingen™). Microscopic analysis, was performed using a fluorescence microscope (E800; Nikon) or laser-scanning confocal microscope (Carl Zeiss, Inc.). The fluorescence microscope was equipped with a digital camera (DXM 1200F; Nikon), and with either a 20× NA 0.50 or 40× NA 0.75 objective lens (Plan Fluor; Nikon). The confocal microscope was equipped with LSM 510 laser scanning capacity (three lasers: Ar 488, HeNe 543, and HeNe 633). Recordings were made on postfixed tissues using acquisition software (NIS-Elements, F3 [Nikon] or LSM [Carl Zeiss, Inc.]). For quantification of staining intensity, total cell and background staining was measured using ImageJ software (NIH), and intensity of specific staining was calculated, as previously described (Burgess et al, 2010). Images were cropped, merged, and optimized using Photoshop CS6 13.0 (Adobe), and were arranged using Illustrator CS5 15.1 (Adobe).
From each brain, 6 μm coronal slices were collected, and eight sections per mouse, from four different pre-determined depths throughout the region of interest (dentate gyrus or cerebral cortex) were immunostained. […]

[1] = system: choroid plexus leukocyte trafficking molecules (icam1, cxcl10, ccl2) and ifn-γ; experiment: Choroid plexus (CP) mRNA expression by RT-qPCR
Procedure: Total RNA of the hippocampal dentate gyrus (DG) was extracted with TRI Reagent (Molecular Research Center) and purified from the lysates using an RNeasy Kit (Qiagen). Total RNA of the choroid plexus was extracted using an RNA MicroPrep Kit (Zymo Research). mRNA (1 μg) was converted into cDNA using a High Capacity cDNA Reverse Transcription Kit (Applied Biosystems). The expression of specific mRNAs was assayed using fluorescence-based quantitative real-time PCR (RT-qPCR). RT-qPCR reactions were performed using Fast-SYBR PCR Master Mix (Applied Biosystems). Quantification reactions were performed in triplicate for each sample using the standard curve method. Peptidylprolyl isomerase A (ppia) was chosen as a reference (housekeeping) gene. The amplification cycles were 95° C. for 5 s, 60° C. for 20 s, and 72° C. for 15 s. […] For ifn-γ and ppia gene analysis, the cDNA was pre-amplified in 14 PCR cycles with non-random PCR primers, thereby increasing the sensitivity of the subsequent real-time PCR analysis, according to the manufacturer's protocol (PreAmp Master Mix Kit; Applied Biosystems). mRNA expression was determined using TaqMan RT-qPCR, according to the manufacturer's instructions (Applied Biosystems). All RT-qPCR reactions were performed and analyzed using StepOne software V2.2.2 (Applied Biosystems). […]

[2] = system: hippocampal cytokine and neurotropic factor mRNA; experiment: Brain parenchyma / hippocampus mRNA expression by RT-qPCR
Procedure: Total RNA of the hippocampal dentate gyrus (DG) was extracted with TRI Reagent (Molecular Research Center) and purified from the lysates using an RNeasy Kit (Qiagen). Total RNA of the choroid plexus was extracted using an RNA MicroPrep Kit (Zymo Research). mRNA (1 μg) was converted into cDNA using a High Capacity cDNA Reverse Transcription Kit (Applied Biosystems). The expression of specific mRNAs was assayed using fluorescence-based quantitative real-time PCR (RT-qPCR). RT-qPCR reactions were performed using Fast-SYBR PCR Master Mix (Applied Biosystems). Quantification reactions were performed in triplicate for each sample using the standard curve method. Peptidylprolyl isomerase A (ppia) was chosen as a reference (housekeeping) gene. The amplification cycles were 95° C. for 5 s, 60° C. for 20 s, and 72° C. for 15 s. At the end of the assay, a melting curve was constructed to evaluate the specificity of the reaction. For ifn-γ and ppia gene analysis, the cDNA was pre-amplified in 14 PCR cycles with non-random PCR primers, thereby increasing the sensitivity of the subsequent real-time PCR analysis, according to the manufacturer's protocol (PreAmp Master Mix Kit; Applied Biosystems). mRNA expression was determined using TaqMan RT-qPCR, according to the manufacturer's instructions (Applied Biosystems). All RT-qPCR reactions were performed and analyzed using StepOne software V2.2.2 (Applied Biosystems). The following TaqMan Assays-on-Demand™ probes were used: Mm02342430_g1 (ppia) and Mm01168134_m1 (ifn-γ).
For all other genes examined, the following primers were used: […]

[3] = weekly-GA vs untreated AD-Tg mice, age 6 m

Compound: CC1=C(/C=C/C(C)=C/C=C/C(C)=C/C(=O)O)C(C)(C)CCC1 [ATRA, All-trans retinoic acid]
- cerebral Aβ plaque burden (Aβ plaques; 3 weeks after last ATRA injection, AD-Tg mice): 2-3 fold increase

Compound: Diphtheria toxin [DTx]
- CP mRNA expression of leukocyte trafficking molecules (icam1, cxcl10, ccl2) ([1]; AD-Tg/DTR+ vs DTx-treated AD-Tg/DTR− littermates, 1 day after last DTx injection): elevated mRNA expression
- mRNA expression levels of pro-inflammatory cytokines (il-12p40, tnf-α) ([2]; AD-Tg/DTR+ mice, brain parenchyma, 3 weeks after last DTx injection): reduced mRNA expression levels
- foxp3 and il10 mRNA expression ([2]; AD-Tg/DTR+ mice, hippocampus, 3 weeks after last DTx injection): increased expression

Compound: Glatiramer acetate [GA]
- CP epithelial expression of leukocyte trafficking molecules (icam1, cxcl10, ccl2) ([1]; weekly-GA, AD-Tg mice, end of 1st or 4th week): upregulated epithelial expression of leukocyte trafficking molecules
- neuroinflammation ([2]; weekly-GA 100 μg s.c. over 4 weeks, 5XFAD AD-Tg mice, hippocampus): reduced neuroinflammation
- hippocampal mRNA of anti-inflammatory cytokines IL-10 and TGF-β [2, 3]: elevation
- hippocampal mRNA of neurotropic factors IGF-1 and BDNF [2, 3]: elevation
- hippocampal mRNA of pro-inflammatory cytokines TNF-α, IL-1β and IL-12p40 [2, 3]: reduced expression
- Aβ plaque load (Aβ plaques; daily-GA 100 μg s.c. for 1 month, 5XFAD AD-Tg mice): did not show any beneficial effect, or showed a moderate adverse effect on plaque load
- Aβ plaque load (percentage of total area of hippocampal dentate gyrus) (Aβ plaques; weekly-GA, 5XFAD AD-Tg mice): robust effect; also recorded: reduction in Aβ plaque load
- mean Aβ plaque numbers (Aβ plaques; weekly-GA, 5XFAD AD-Tg mice): reduction
